Assay [1] deals with T1, CDK2/cyclin A complex (Homo sapiens, UniProt P24941).
T1 construct: made in house; host or cells: CDK2: insect cells (baculovirus); cyclin A: E. coli
Put plainly: Inhibition of CDK2/Cyclin A retinoblastoma kinase activity. In kind it is biochemical. Particulars: apparent Ki. Here is the method:
(§1) Cyclin-dependent kinase activity was measured by quantifying the enzyme-catalyzed, time-dependent incorporation of radioactive phosphate from [^32P]ATP or [^33P]ATP into a protein substrate. Unless noted otherwise, assays were performed in 96-well plates in a total volume of 50 μL, in the presence of 10 mM HEPES (N-[2-hydroxyethyl]piperazine-N′-[2-ethanesulfonic acid]) (pH 7.4). 10 mM MgCI2, 25 μM adenosine triphosphate (ATP), 1 mg/mL ovalbumin, 5 μg/mL leupeptin, 1 mM dithiothreitol, 10 mM beta-glycerophosphate, 0.1 mM sodium vanadate, 1 mM sodium fluoride, 2.5 mM ethylene glycol-bis(β-aminoethyl ethKer)-N,N,N′N′-tetraacetic acid (EGTA), 2% (v/v) dimethylsulfoxide, and 0.03-0.4 μCi [^32/33P]ATP per reaction. Reactions were initiated with enzyme, incubated at 30° C. and terminated after 20 minutes by the addition ofethylenediaminetetraacetic acid (EDTA) to 250 mM. The phosphorylated substrate was then captured on a nitrocellulose or phosphocellulose membrane using a 96-well filtration manifold, and unincorporated radioactivity was removed by repeated washing with 0.85% phosphoric acid. Radioactivity was quantified by exposing the dried membranes to a phosphorimager.
(§2) Apparent Ki values were measured by assaying enzyme activity in the presence of different inhibitor compound concentrations and subtracting the background radioactivity measured in the absence of enzyme. Inhibition data were fit to an equation for competitive inhibition using Kaleidagraph (Synergy Software), or were fit to an equation for competitive tight-binding inhibition using the software KineTic (BioKin, Ltd.).
CDK2 was purified using published methodology (Rosenblatt et al., “Purification and Crystallization of Human Cyclin-dependent Kinase 2,” J. Mol. Biol., vol. 230, pp. 1317-1319 (1993)) from insect cells that had been infected with a baculovirus expression vector. […] Ki values were measured as described above.

The target in assay [2] is T2, VEGF-R2 (VEGF-R2Δ50 construct) (Homo sapiens, UniProt P35968, DEL940-989/E990V).
T2 construct: VEGF-R2Δ50 contains residues 806-939 and 990-1171; made in house; host or cells: baculovirus/insect cell system
Put plainly: VEGF-R2 assay. Type of assay: biochemical. Particulars: read-out: Percent Inhibition VEGF. The source says:
This construct determines the ability of a test compound to inhibit tyrosine kinase activity. A construct (VEGF-R2Δ50) of the cytosolic domain of human vascular endothelial growth factor receptor 2 (VEGF-R2) lacking the 50 central residues of the 68 residues of the kinase insert domain was expressed in a baculovirus/insect cell system. This construct is described by McTigue et al. in Structure, vol. 7, pp. 319-330 (1999) and co-pending U.S. patent application Ser. No. 09/390,326, filed Sep. 7, 1999. Of the 1356 residues of full-length VEGF-R2, VEGF-R2Δ50 contains residues 806-939 and 990-1171, and also one point mutation (E990V) within the kinase insert domain relative to wild-type VEGF-R2. […]
The production of ADP from ATP that accompanies phosphoryl transfer was coupled to oxidation of NADH using phosphoenolpyruvate (PEP) and a system having pyruvate kinase (PK) and lactic dehydrogenase (LDH). The oxidation of NADH was monitored by following the decrease of absorbance at 340 nm (e340=6.22 cm^−1 mM^−1) using a Beckman DU 650 spectrophotometer. […] Ki values were determined by measuring enzyme activity in the presence of varying concentrations of test compounds. The data were analyzed using Enzyme Kinetic and Kaleidagraph software.
Formation of phosphogastrin was monitored using biotinylated gastrin peptide (1-17) as substrate. […]

Assay [3] concerns the target T3, CDK4/cyclin D3 complex (Homo sapiens, UniProt P11802).
T3 construct: made in house; host or cells: insect cells co-infected with baculovirus expression vectors
Put plainly: Inhibition of CDK4/Cyclin D retinoblastoma kinase activity. Type of assay: biochemical. The settings on record: apparent Ki. As to the method: as §1, §2
A complex of human CDK4 and cyclin D3, or a complex of human CDK4 and genetically truncated (1-264) cyclin D3, was purified using traditional biochemical chromatographic techniques from insect cells that had been co-infected with the corresponding baculovirus expression vectors ((see e.g., Meijer and Kim, “Chemical Inhibitors of Cyclin-Dependent Kinases,” Methods in Enzymol,. vol. 283, pp. 113-128 (1997)). The enzyme complex (5 or 50 nM) was assayed with 0.3-0.5 μg of purified recombinant retinoblastoma protein fragment (Rb) as a substrate. The engineered Rb fragment (residues 386-928 of the native retinoblastoma protein; 62.3 kDa) contains the majority of the phosphorylation sites found in the native 106-kDa protein, as well as a tag of six histidine residues for ease of purification. Phosphorylated Rb substrate was captured by microfiltration on a nitrocellulose membrane and quantified using a phosphorimager as described above. For measurement of tight-binding inhibitors, the enzyme complex concentration was lowered to 5 nM, and the assay duration was extended to 60 minutes, during which the time-dependence of product formation was linear.

For assay [4], the system named is HCT 116 cell line. Put plainly: Inhibition of cell growth, MTT tetrazolium salt assay. The settings on record: Homo sapiens, HCT116 cells; for IC50: 50% inhibition of growth, read-out: HCT116 IC 50. Type of assay: cell-based. As to the method: Inhibition of cell growth was measured using the tetrazolium salt assay, which is based on the ability of viable cells to reduce 3-(4,5-dimethylthiazol-2-yl)-2,5-[2H]-diphenyltetrazolium bromide (MTT) to formazan (Mossman, Journal of Immunological Methods, vol.65, pp. 55-58(1983)). The water-insoluble purple formazan product was then detected spectrophotometrically. The HCT 116 cell line was grown in 96-well plates. Cells were plated in the appropriate medium at a volume of 135 μl/well in McCoy's 5A Medium. Plates were incubated for four hours before addition of inhibitor compounds. Different concentrations of inhibitor compounds were added in 0.5% (v/v) dimethylsulfoxide (15 μL/well), and cells were incubated at 37° C. (5% CO2) for four to six days (depending on cell type). At the end of the incubation, MTT was added to a final concentration of 0.2 mg/mL, and cells were incubated for 4 hours more at 37° C. After centrifugation of the plates and removal of medium, the absorbance of the formazan (solubilized in dimethylsulfoxide) was measured at 540 nm. The concentration of inhibitor compound causing 50% inhibition of growth was determined from the linear portion of a semi-log plot of inhibitor concentration versus percentage inhibition. All results were compared to control cells treated only with 0.5% (v/v) dimethylsulfoxide.
On the technique in general: Formazan colour is commonly taken as a measure of viable cells.

Data on four compounds can be found in patent publication US6462069B2, “Compounds, pharmaceutical compositions, and methods for inhibiting protein kinases” (Agouron Pharmaceuticals, Inc., priority 2000, dated 2002).

T3 sequence (P11802 whole entry): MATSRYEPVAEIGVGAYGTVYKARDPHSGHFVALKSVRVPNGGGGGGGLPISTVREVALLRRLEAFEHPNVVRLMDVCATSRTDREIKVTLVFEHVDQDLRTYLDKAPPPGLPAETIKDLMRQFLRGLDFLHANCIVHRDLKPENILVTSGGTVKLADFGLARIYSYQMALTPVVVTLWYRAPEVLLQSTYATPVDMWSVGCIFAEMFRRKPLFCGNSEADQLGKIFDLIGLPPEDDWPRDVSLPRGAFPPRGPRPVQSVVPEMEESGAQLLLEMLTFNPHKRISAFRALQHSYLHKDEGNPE
T3 sequence (P30281 whole entry partner): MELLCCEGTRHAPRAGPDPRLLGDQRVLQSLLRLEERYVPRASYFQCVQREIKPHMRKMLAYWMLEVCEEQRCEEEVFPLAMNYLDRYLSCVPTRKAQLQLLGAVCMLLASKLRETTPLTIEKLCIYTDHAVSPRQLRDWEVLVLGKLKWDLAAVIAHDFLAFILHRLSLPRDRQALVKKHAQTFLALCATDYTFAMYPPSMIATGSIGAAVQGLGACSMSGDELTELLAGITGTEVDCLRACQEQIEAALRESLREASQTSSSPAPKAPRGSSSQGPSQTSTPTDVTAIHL
T2 sequence (P35968 with tags, fused parts or gaps DEL940-989/E990V limits assumed): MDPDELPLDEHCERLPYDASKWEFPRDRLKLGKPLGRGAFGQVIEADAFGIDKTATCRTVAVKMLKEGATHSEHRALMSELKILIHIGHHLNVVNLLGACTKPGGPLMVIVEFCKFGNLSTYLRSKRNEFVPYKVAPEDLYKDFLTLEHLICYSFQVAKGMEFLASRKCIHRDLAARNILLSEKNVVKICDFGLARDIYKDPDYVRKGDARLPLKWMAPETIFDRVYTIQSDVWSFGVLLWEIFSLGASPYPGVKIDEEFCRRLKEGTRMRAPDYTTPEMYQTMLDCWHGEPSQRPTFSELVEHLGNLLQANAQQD

As usually defined, the inhibition is the percentage by which the read-out fell short of the control. As for `c1ccc(Nc2cc(-c3cccs3)[nH]n2)cc1` [Compound A, Phenyl-(5-thiophen-2-yl-1H-pyrazol-3-yl)-amine], the Ki was determined as 25.8 µM in assay [1] and 26.2 µM in assay [3]. In addition, the inhibition at 5 µM in assay [2] amounted to 10%.
The matching figures for `c1ccc(Nc2cc(-c3csc4ccccc34)[nH]n2)cc1` [Compound B]: 6.2 µM, 3.1 µM and 21%.
In the case of `NS(=O)(=O)c1ccc(Nc2cc(-c3csc4ccccc34)[nH]n2)cc1` [Compound O], the IC50 in assay [4] was found to be 9.5 µM. Besides, the IC90 in assay [4] (read-out: HCT116 IC 90) is 24 µM. The Ki stood at 0.062 µM in assay [1] and 1.6 µM in assay [3].
`NS(=O)(=O)c1ccc(Nc2cc(-c3csc4cc(O)ccc34)[nH]n2)cc1` [Compound W, 4-[5-(6-Hydroxy-benzo[b]Thiophen-3-yl)-1H-pyrazol-3-ylamino]-Benzenesulfonamide]: in assay [4], the IC50 is 20 µM. For the same compound, the Ki in assay [1] is 0.016 µM; in assay [3] it was 0.9 µM.
